How the values were obtained:
CD4+ T-cells [1] = assay: Cell cycle analysis (propidium iodide, Vindelov method); assay type: cell-based, mouse
Method: CD4^+ T-cells were cultured in RPMI 1640 medium (Life Technologies, Paisley, UK) supplemented with 10% FCS (Life Technologies), 2 mM L-glutamine, (Sigma, Dorset, UK), 20 μg/ml penicillin/streptomycin (Life Technologies) and […] 2-mercaptoethanol (Sigma). Anti-CD3/28 antibody activation was carried out at 2 concentrations, namely ‘sub-optimal’ (anti-CD3 at 0.25 μg/ml and anti-CD28 at 0.1 μg/ml) and ‘optimal’ (anti-CD3 at 1 μg/ml and anti-CD28 at 5 μg/ml). Tissue culture plates (Corning Inc., NY, USA) were coated with the anti-CD3 antibody for 90 min at 37° C. prior to addition of the CD4^+ T-cells. Recombinant mouse Shh amino-terminal peptide (R&D systems Europe Ltd, Abingdon, UK) was added into cultures at a concentration of 500 ng/ml. 5E1 antibody was used at either 20 μg/ml or 50 μg/ml and the isotype control was used at 20 μg/ml. The concentrations used were based on results of dose response curves (data not shown).
(§1) The CD4^+ T-cells were cultured as above in 48-well plates with and without addition of exogenous Shh or 5E1. At 72 hr post-activation, the cells were spun at 13,000 rpm for 7 min then re-suspended in citrate buffer. Cell cycle analysis was carried out using the Vindelov method (Vindelov et al, 1990). Briefly, the cells were trypsinized (Sigma) to expose the nucleus before being stained with propidium iodide (Sigma). Cell cycle analysis was then performed on an Epics© XL flow cytometer (Beckman Coulter UK Ltd, Bucks, UK). The machine counted 30,000 nuclei in each sample and the software analysed the % of cells in each stage of the cell cycle sub-G1, G1, S phase and G2/M. From these figures, the % of live cells (G1, S and G2/M) was calculated, and from this, the % of live cells in G1 and S/G2 phases.
The effect of Shh on CD4^+ T-cell proliferation was investigated further using cell cycle analysis to allow us to examine if Shh affected cell survival or promoted entry in the S/G2 proliferative phase of the cell cycle. As with the ^3H-TdR incorporation studies, this analysis was carried out on resting CD4^+ T-cells and those optimally and sub-optimally activated. Exogenous Shh was added at the time of (t=0) or 24 hr before (t=−24 hr) anti-CD3/28 antibody activation and the T-cells were analysed 72 hr later. In the case of resting CD4^+ T-cells, Shh peptide was added at t=0, and the cells were analysed at 24 hr, 48 hr and 72 hrs. The % cells distributed in sub-G1, G1, S and G2 phases of the cell cycle was analysed, and from this the % live cells in G1 and S/G2 phases was calculated.

Gli2-/Gli3- mice cells = assay: Cell cycle / survival analysis in Gli2-/Gli3- mice cells; assay type: cell-based, mouse; details: Shh 10 and 500 ng/ml
Method: Cell survival was measured in Gli2^−/Gli3^− mice cells (i.e. from mice in which one allele each of Gli2 and Gli3 were deleted from the genome) in the presence (10 ng/ml and 500 ng/ml) and absence of Shh;
as §1

CD4+ T-cells [2] = assay: Taqman real time PCR of Shh, Ihh, HIP and Ptc expression in CD4+ T-cells (FIGS. 14, 15, 17); assay type: cell-based
Method: Expression in medium, in the presence of 50 ng/ml IL-10 and in the presence of 50 ng/ml IFN-γ was compared to expression in resting CD4+ T-cells;
Similar experiments were used to study the expression of Shh (FIG. 4) and Ptc (FIG. 5) in T-cells and the expression of components of the Hh signalling pathway in lymphoid tissues (FIG. 6). FIG. 14 illustrates the results of an RT-PCR analysis of Shh, Ihh, Hip and Ptc expression. Activation of T-cells induced a sustained and marked (approximately 80-fold) increase in Shh mRNA, peaking at 44 and 72 hours. It lead to a downregulation of Ptc.

human CD4 T-cells = assay: Proliferation of human CD4 T-cells cultured with Shh N-terminal active peptide (3H thymidine); assay type: cell-based; details: activated CD4+ T-cells; dose dependent
[3] = optimally activated, Shh 24 hr prior to activation
[4] = sub-optimally activated, Shh peptide at t=0
[5] = Shh added to activated T-cell cultures

## Shh peptide: Recombinant mouse Shh amino-terminal peptide (R&D systems); biologically active N-terminal Sonic hedgehog fragment
CD4+ T-cells [1]; FIG. 13, Shh 10 and 500 ng/ml, relative to the anti-Shh effect
  effect on cell cycle progression, direct addition on its own: slight effect in the opposite direction
CD4+ T-cells [1]; optimally activated (anti-CD3 1 μg/ml, anti-CD28 5 μg/ml), Shh at t=0, 72 hr
  % increase in live cells in S/G2 phase, range: 9%-144%
CD4+ T-cells [1]; [3]
  % of live cells with and without Shh: very similar
  increase in cells in S/G2 phase, range: 53.1%-97.1%
CD4+ T-cells [1]; optimally activated, Shh 24 hr prior to activation, n=3, p<0.01
  increase in cells in S/G2 phase, mean: 71.5%
CD4+ T-cells [1]; optimally activated, Shh at t=0
  % of live cells with and without Shh: very similar
CD4+ T-cells [1]; optimally activated, Shh at t=0, n=3, not statistically significant
  % increase in live cells in S/G2 phase, mean: 63.7%
CD4+ T-cells [1]; resting CD4+ T-cells, Shh 500 ng/ml
  difference in % of cells in S/G2 phase: negligible
CD4+ T-cells [1]; resting CD4+ T-cells, Shh 500 ng/ml, 24, 48, 72 hr
  effect on cell survival: minimal effects
CD4+ T-cells [1]; sub-optimally activated, Shh peptide 24 hr prior to activation
  increase in % of live cells entering S/G2 phase, range: 34.6%-110%
CD4+ T-cells [1]; sub-optimally activated, Shh peptide 24 hr prior to activation, n=3, p<0.03
  increase in % of live cells entering S/G2 phase, mean: 61.5%
CD4+ T-cells [1]; sub-optimally activated, Shh peptide 24 hr prior to activation, p<0.02
  % of live CD4+ T-cells: increase
CD4+ T-cells [1]; [4]
  % increase in live cells in S/G2 phase, range: 27.8%-77.8%
  % live cells with and without Shh: similar
CD4+ T-cells [1]; sub-optimally activated, Shh peptide at t=0, n=3, p<0.02
  % increase in live cells in S/G2 phase, mean: 55.8%
Gli2-/Gli3- mice cells
  effect on survival / apoptosis (live cells, sub-G1 pool): promotes apoptosis
CD4+ T-cells [2]; [5]
  Hip expression: up-regulated
  Ihh expression: down-
CD4+ T-cells [2]; activated T-cells, Shh addition
  effect on Ptc downregulation: does not appear to affect
CD4+ T-cells [2]; activated T-cells, Shh addition, 24 hours, 40 cycles of PCR (limit of assay)
  Shh mRNA expression: no signal is detected
Human CD4 T-cells
  incorporation of 3H-thymidine: significantly enhances

Reference: patent US20040126359A1, “Hedgehog” (priority 2001, published 2004)
